According to article PMC11672294, “The Antipsychotic Drug Aripiprazole Suppresses Colorectal Cancer by Targeting LAMP2a to Induce RNH1/miR‐99a/mTOR‐Mediated Autophagy and Apoptosis” (Advanced Science, 2024):
Where a name gives a salt, the structure may show the parent alone. Starred links: 1 amine or outer side, 2 acyl side, 3 side chain; linkers in the order of their positions; H or OH if unused. Positions of bridges follow the written chain, without caps; N, C: chain ends. Non-standard residues stand in square brackets, D forms with d. Residues, ends and D or L forms follow the SMILES beside them. *: point of attachment. hTyr(3S-OH,4S-OH,3'-OSO3H) = N[C@H](C(=O)O)[C@H](O)[C@@H](O)c1ccc(O)c(OS(=O)(=O)O)c1; Orn(4R-OH,5R-OH) = O=C([C@H](C[C@@H](O)[C@@H](O)N[*:3])N[*:1])[*:2]; Pro(3S-OH,4S-Me) = C[C@H]1CN[C@H](C(=O)O)[C@H]1O; X1 = CCCCCOc1ccc(-c2cc(-c3ccc(C(=O)*)cc3)no2)cc1; Gln(3R-OH) = NC(=O)C[C@@H](O)[C@H](N)C(=O)O; Hyp = O=C(O)[C@@H]1C[C@@H](O)CN1

These molecules were tested on HT29. Conditions: 72 h, relative to DMSO, 10 µM, Relative cell viability (%).
Excerpt: To investigate the key signaling pathways and biological processes involved in CRC progression, we analyzed the National Center for Biotechnology Information Gene Expression Omnibus (GEO) dataset GSE115313, which included 42 CRC and paired normal tissues (Figure 1A). […] Next, we performed an Annexin V‐fluorescein isothiocyanate (FITC)/propidium iodide (PI) staining assay to determine the effect of aripiprazole on apoptosis in CRC cells. […] A) Principal component analysis of GEO dataset (GSE115313), which includes 42 CRC and paired normal tissues. B) Gene Ontology pathway analysis of the DEPs between CRC and paired normal tissues. […] D) Schematic diagram for identifying anticancer drugs amongst an US Food and Drug Administration‐approved small‐molecule library (616 compounds) using WST‐1 assay. E) HT29 cells were treated with the 616 drugs (10 µM) individually or with dimethyl sulfoxide for 72 h, followed by WST‐1 assay. […] J) Mice bearing HT29‐derived tumor xenografts were intragastrically administered with aripiprazole (10 or 20 mg kg^−1) once every 2 d, n = 6 mice/group. […] Bars, SD; ^* p < 0.05; ^** p < 0.01; ^*** p < 0.001; ns, no significant difference. The WST‐1 Cell Proliferation and Cytotoxicity Assay Kit (Beyotime Biotechnology, Shanghai, China) was used to measure cell viability, as described previously.^[ [10] ^] CRC cells were seeded into 96‐well plates and treated with different drug concentrations. Following that, WST‐1 was added to the plate and incubated with the cells for 2 h, at 37 °C. Absorbance at the wavelength of 450 nm was measured using an automated microplate spectrophotometer (BioTek Instruments, Winooski, VT, USA).

Compared with `COc1cc(Nc2ncc(F)c(Nc3ccc4c(n3)N(COP(=O)(O)O)C(=O)C(C)(C)O4)n2)cc(OC)c1OC` [Fostamatinib (R788)], `N#CC[C@H](C1CCCC1)n1cc(-c2ncnc3[nH]ccc23)cn1` [Ruxolitinib (INCB018424)] is higher in “Relative cell viability (%)” value: 28.64% for the first, 77.41% for the second.

Same assay, conditions: 72 h, relative to DMSO; 10 µM

First: CC(C(=O)O)c1ccc2c(c1)CC(=O)c1ccccc1S2 (centres unmarked) [Zaltoprofen]
Second: CC(CCc1ccccc1)NCC(O)c1ccc(O)c(C(N)=O)c1 (centres unmarked) [Labetalol HCl]
The “Relative cell viability (%)” value of the first is higher: 88.35% for the first, 55.76% for the second.

Going from `O=C(O)/C=C/c1ccc(Cn2ccnc2)cc1` [Ozagrel HCl] to `CCc1ccc(CCOc2ccc(CC3SC(=O)NC3=O)cc2)nc1` (centres unmarked) [Pioglitazone HCl], the “Relative cell viability (%)” value rises from 127.9% to 158.4%.

Compared with `CCc1c2c(nc3ccc(OC(=O)N4CCC(N5CCCCC5)CC4)cc13)-c1cc3c(c(=O)n1C2)COC(=O)[C@]3(O)CC` [Irinotecan HCl Trihydrate], `Cc1cnc(Nc2ccc(OCCN3CCCC3)cc2)nc1Nc1cccc(S(=O)(=O)NC(C)(C)C)c1` [TG101348 (SAR302503)] is lower in “Relative cell viability (%)” value: 113.8% for the first, 16.99% for the second.

Going from `CCCN(CCc1cccs1)[C@H]1CCc2c(O)cccc2C1` [Rotigotine] to `CCC(=O)NCC[C@@H]1CCc2ccc3c(c21)CCO3` [Ramelteon], the “Relative cell viability (%)” value rises from 62.12% to 64.95%.

Compared with `O=c1cc[nH]c(=O)[nH]1` [Uracil], `O=C(O)c1cc(=O)[nH]c(=O)[nH]1` [Orotic acid (6-Carboxyuracil)] is higher in “Relative cell viability (%)” value: 73.94% for the first, 101.4% for the second.

First: O=P1(NCCCl)OCCCN1CCCl (centres unmarked) [Ifosfamide]
Second: C[C@H](CS)C(=O)N1CCC[C@H]1C(=O)O [Captopril]
The “Relative cell viability (%)” value of the first is lower: 92.99% for the first, 243.5% for the second.

First: O=C(NC1CCN(CCCCC2(C(=O)NCC(F)(F)F)c3ccccc3-c3ccccc32)CC1)c1ccccc1-c1ccc(C(F)(F)F)cc1 [Lomitapide Mesylate]
Second: CCCc1nc2c(C)cc(-c3nc4ccccc4n3C)cc2n1Cc1ccc(-c2ccccc2C(=O)O)cc1 [Telmisartan]
The “Relative cell viability (%)” value of the first is lower: 0% for the first, 47.46% for the second.

First: CCN(CC)CC#CCOC(=O)C(O)(c1ccccc1)C1CCCCC1 (centres unmarked) [Oxybutynin]
Second: CCOC(=O)[C@H](CCc1ccccc1)N[C@@H](C)C(=O)N1C(=O)N(C)C[C@H]1C(=O)O [Imidapril HCl]
The “Relative cell viability (%)” value of the first is lower: 58.9% for the first, 128.5% for the second.

Compared with `Cc1nc(Nc2ncc(C(=O)Nc3c(C)cccc3Cl)s2)cc(N2CCN(CCO)CC2)n1` [Dasatinib Monohydrate], `Cc1cc(Nc2cc(CN3CCOCC3)c3nc(C)c(Cc4ccc(Cl)cc4F)n3n2)n[nH]1` [LY2784544] is higher in “Relative cell viability (%)” value: 20.09% for the first, 102.6% for the second.

Compared with `O=C(O)c1cn(-c2ccc(F)cc2)c2cc(N3CCNCC3)c(F)cc2c1=O` [Sarafloxacin HCl], `COc1cc2c(cc1Cc1cccc(Cl)c1F)c(=O)c(C(=O)O)cn2[C@H](CO)C(C)C` [Elvitegravir (GS-9137, JTK-303)] is lower in “Relative cell viability (%)” value: 85.35% for the first, 58.4% for the second.

Compared with `CNCCC(Oc1ccc(C(F)(F)F)cc1)c1ccccc1` (centres unmarked) [Fluoxetine HCl], `Cc1cccc(N(C)C(=S)Oc2ccc3ccccc3c2)c1` [Tolnaftate] is higher in “Relative cell viability (%)” value: 86.76% for the first, 126.1% for the second.

Going from `COC1=C(OC)C(=O)C(CCCCCCCCCCO)=C(C)C1=O` [Idebenone] to `O=C(Nc1cccc2c(=O)cc(-c3nnn[nH]3)oc12)c1ccc(OCCCCc2ccccc2)cc1` [Pranlukast], the “Relative cell viability (%)” value rises from 41.75% to 81.78%.

First: CCCCCOc1ccc(-c2cc(-c3ccc(C(=O)N[C@H]4C[C@@H](O)[C@@H](O)NC(=O)[C@@H]5[C@@H](O)[C@@H](C)CN5C(=O)[C@H]([C@H](O)CC(N)=O)NC(=O)[C@H]([C@H](O)[C@@H](O)c5ccc(O)c(OS(=O)(=O)O)c5)NC(=O)[C@@H]5C[C@@H](O)CN5C(=O)[C@H]([C@@H](C)O)NC4=O)cc3)no2)cc1 [Micafungin Sodium] (X1-[Orn(4R-OH,5R-OH)]T[Hyp][hTyr(3S-OH,4S-OH,3'-OSO3H)][Gln(3R-OH)][Pro(3S-OH,4S-Me)]; lactam 1-C)
Second: COc1cccc2c1C(=O)c1c(O)c3c(c(O)c1C2=O)C[C@@](O)(C(=O)CO)C[C@@H]3O[C@H]1C[C@H](N)[C@@H](O)[C@H](C)O1 [Epirubicin HCl]
The “Relative cell viability (%)” value of the first is higher: 77.58% for the first, 10.44% for the second.

First: C[C@@H](O)[C@H]1C(=O)N2C(C(=O)O)=C(S[C@@H]3CN[C@H](C(=O)N(C)C)C3)[C@H](C)[C@H]12 [Meropenem]
Second: C[C@@H]1CN(c2c(F)c(N)c3c(=O)c(C(=O)O)cn(C4CC4)c3c2F)C[C@H](C)N1 [Sparfloxacin]
The “Relative cell viability (%)” value of the first is lower: 72.74% for the first, 75.42% for the second.

Going from `OCCN(CCO)c1nc(N2CCCCC2)c2nc(N(CCO)CCO)nc(N3CCCCC3)c2n1` [Dipyridamole] to `S=C(NCc1ccc2c(c1)OCO2)N1CCN(c2ncnc3c2oc2ccccc23)CC1` [Amuvatinib (MP-470)], the “Relative cell viability (%)” value rises from 52.54% to 66.51%.

Going from `O=C(NC(Cc1cc(=O)[nH]c2ccccc12)C(=O)O)c1ccc(Cl)cc1` (centres unmarked) [Rebamipide] to `O=c1sn(-c2cccc3ccccc23)c(=O)n1Cc1ccccc1` [Tideglusib], the “Relative cell viability (%)” value falls from 125.4% to 51.94%.

Compared with `CC[C@@H](C(N)=O)N1CCCC1=O` [Levetiracetam], `CC(C[N+](C)(C)C)OC(N)=O` (centres unmarked) [Bethanechol chloride] is higher in “Relative cell viability (%)” value: 78.97% for the first, 104.3% for the second.

Compared with `COc1ccccc1OCC(O)CO` (centres unmarked) [Guaifenesin], `COc1cc([C@H]2Oc3cc([C@H]4Oc5cc(O)cc(O)c5C(=O)[C@@H]4O)ccc3O[C@@H]2CO)ccc1O` [Silibinin] is higher in “Relative cell viability (%)” value: 74.15% for the first, 119.6% for the second.

First: CCc1cnn2c(NCc3ccc[n+]([O-])c3)cc(N3CCCC[C@H]3CCO)nc12 [Dinaciclib (SCH727965)]
Second: C=CC(=O)Nc1cccc(Nc2nc(Nc3ccc(N4CCN(C(C)=O)CC4)cc3OC)ncc2C(F)(F)F)c1 [CO-1686 (AVL-301)]
The “Relative cell viability (%)” value of the first is higher: 33.01% for the first, 16.24% for the second.

Compared with `NC(=O)c1cccnc1` [Nicotinamide (Vitamin B3)], `Cc1c(-c2cnccn2)ssc1=S` [Oltipraz] is lower in “Relative cell viability (%)” value: 113.7% for the first, 84.19% for the second.

Compared with `CC(C)C[C@H](NC(=O)[C@H](CCc1ccccc1)NC(=O)CN1CCOCC1)C(=O)N[C@@H](Cc1ccccc1)C(=O)N[C@@H](CC(C)C)C(=O)[C@@]1(C)CO1` [Carfilzomib (PR-171)], `C=CC[C@@H]1/C=C(\C)C[C@H](C)C[C@H](OC)[C@H]2O[C@@](O)(C(=O)C(=O)N3CCCC[C@H]3C(=O)O[C@H](/C(C)=C/[C@@H]3CC[C@@H](O)[C@H](OC)C3)[C@H](C)[C@@H](O)CC1=O)[C@H](C)C[C@@H]2OC` [Tacrolimus (FK506)] is higher in “Relative cell viability (%)” value: 15.53% for the first, 102.1% for the second.

Compared with `CCN(CC)CCNC(=O)c1cc(Cl)c(N)cc1OC` [MetoclopraMide HCl], `CCC[S+]([O-])c1ccc2[nH]c(NC(=O)OC)nc2c1` (centres unmarked) [Albendazole Oxide] is lower in “Relative cell viability (%)” value: 75.76% for the first, 65.25% for the second.

Going from `NCCc1c[nH]c2ccc(O)cc12` [Serotonin HCl] to `NC(CO)C(=O)NNCc1ccc(O)c(O)c1O` (centres unmarked) [Benserazide HCl], the “Relative cell viability (%)” value rises from 86.67% to 108.4%.

Compared with `O[C@@H]1CO[C@H]2[C@@H]1OC[C@@H]2O` [Isosorbide], `O=c1[nH]c(=O)n([C@H]2C[C@H](O)[C@@H](CO)O2)cc1F` [Floxuridine] is lower in “Relative cell viability (%)” value: 83.94% for the first, 44.7% for the second.
